≈ marks a conversion by molar mass, not a printed value.
Columns and labels:
Variola virus [1] = test: Antiviral activity against Variola virus 7124 infected in African green monkey BSC-1 cells; format: functional, organism-based; conditions: Variola virus, 7124, BSC-1
Variola virus [2] = test: Antiviral activity against Variola virus 7124 infected in monkey LLC-MK2 cells; format: functional, organism-based; conditions: Variola virus, 7124, LLC-MK2
Vaccinia virus [3] = test: Antiviral activity against wild type Vaccinia virus infected in human HFF cells assessed as reduction in viral replication measured after 5 days by microscopic analysis; format: functional, organism-based; conditions: Orthopoxvirus vaccinia, 120 h
Vaccinia virus [4] = test: Antiviral activity against Vaccinia virus infected in human HFF cells assessed as reduction in plaque formation measured after 7 days by colorimetric assay; format: functional, organism-based; conditions: Orthopoxvirus vaccinia, 168 h
Monkeypox virus [5] = test: Antiviral activity against Monkeypox virus Zr-599 infected in African green monkey Vero E6 cells assessed as reduction in plaque formation measured after 72 hrs by microscopic analysis; format: functional, organism-based; conditions: Zr-599, Vero C1008, 72 h
Vaccinia virus [6] = test: Antiviral activity against Vaccinia virus infected in monkey BSC40 cells assessed as reduction in virus-induced cytopathic effect; format: functional, organism-based; conditions: Orthopoxvirus vaccinia, BSC-40
Vaccinia virus [7] = test: Antiviral activity against Vaccinia virus Copenhagen infected in HFF cells measured after 3 days by colorimetric assay; format: functional, organism-based; conditions: Orthopoxvirus vaccinia, 72 h
Vaccinia virus [8] = test: Antiviral activity against wild type Vaccinia virus infected in African monkey Vero cells measured after 5 days by MTT assay; format: functional, organism-based; conditions: Orthopoxvirus vaccinia, 120 h
Cowpox virus [9] = test: Antiviral activity against Cowpox virus Brighton infected in Vero cells measured after 4 days by colorimetric assay; format: functional, organism-based; conditions: 96 h
Vaccinia virus [10] = test: Antiviral activity against Vaccinia virus Lister infected in human HEL cells assessed as virus-induced cytopathic effect measured after 5 days by microscopic analysis; format: functional, organism-based; conditions: Orthopoxvirus vaccinia, 120 h
Camelpox virus = test: Antiviral activity against Camelpox virus infected in human HEL cells assessed as reduction in virus-induced cytopathic effect measured after 5 days by microscopic analysis; format: functional, organism-based; conditions: 120 h
Vaccinia virus [11] = test: Antiviral activity against Vaccinia virus Copenhagen infected in African green monkey Vero cells; format: functional, organism-based; conditions: Orthopoxvirus vaccinia
Cowpox virus [12] = test: Antiviral activity against Cowpox virus Grishak infected in African green monkey Vero cells; format: functional, organism-based
Ectromelia virus [13] = test: Antiviral activity against ectromelia virus K-1 infected in Vero cells; format: functional, organism-based; conditions: K-1, Vero
Vaccinia virus [14] = test: Antiviral activity against Vaccinia virus IHD infected in African green monkey Vero cells assessed as reduction in plaque formation measured after 7 days; format: functional, organism-based; conditions: Orthopoxvirus vaccinia, 168 h
Vaccinia virus [15] = test: Antiviral activity against wild type Vaccinia virus IHD infected in monkey Vero cells assessed as reduction in plaque formation measured after 7 days; format: functional, organism-based; conditions: Orthopoxvirus vaccinia, 168 h
Vaccinia virus [16] = test: Antiviral activity against Vaccinia virus Copenhagen infected in human HFF cells assessed as reduction in viral replication measured after 3 days; format: functional, organism-based; conditions: Orthopoxvirus vaccinia, 72 h
Vaccinia virus [17] = test: Antiviral activity against Cowpox virus Brighton infected in human HFF cells assessed as reduction in viral replication measured after 3 days; format: functional, organism-based; conditions: Orthopoxvirus vaccinia, 72 h
Ectromelia virus [18] = test: Antiviral activity against ectromelia virus K-1 infected in Vero cells measured after 4 days by colorimetric assay; format: functional, organism-based; conditions: K-1, Vero, 96 h
Monkeypox virus [19] = test: Antiviral activity against Monkeypox virus V79-1-005 infected in Vero cells measured after 4 days by colorimetric assay; format: functional, organism-based; conditions: V79-1-005, Vero, 96 h
Vaccinia virus [20] = test: Antiviral activity against Vaccinia virus infected in Vero cells measured after 4 days by colorimetric assay; format: functional, organism-based; conditions: Orthopoxvirus vaccinia, 96 h
[21] = Cytotoxicity against African green monkey VERO cells assessed as inhibition of cell growth incubated for 24 hrs by MTT assay; format: toxicity, cell-based; conditions: chlorocebus sabaeus
Vaccinia virus [22] = test: Antiviral activity against Vaccinia virus infected in human HFF cells measured after 4 days by colorimetric assay; format: functional, organism-based; conditions: Orthopoxvirus vaccinia, 96 h
Vaccinia virus [23] = test: Antiviral activity against Vaccinia virus infected in human HFF cells; format: functional, organism-based; conditions: Orthopoxvirus vaccinia
Vaccinia virus [24] = test: Antiviral activity against Vaccinia virus GFP infected in green monkey CV-1 cells assessed as reduction in plaque formation measured after 2.5 days by microscopic analysis; format: functional, organism-based; conditions: Orthopoxvirus vaccinia, CV-1, 60 h
Vaccinia virus [25] = test: Antiviral activity against Vaccinia virus GFP infected in green […] cells assessed as reduction in plaque formation measured after 2.5 days by microscopic analysis; format: functional, organism-based; conditions: Orthopoxvirus vaccinia, HT-1080, 60 h
Vaccinia virus [26] = test: Antiviral activity against Vaccinia virus infected in African green monkey Vero cells incubated for 24 hrs; format: functional, organism-based; conditions: Orthopoxvirus vaccinia

For `O[C@H]1[C@H]2c3cc4c(cc3CN3CCC(=C[C@@H]1O)[C@H]23)OCO4` [LYCORINE], the EC50 (Variola virus [1]) was 5 µM.
`Nc1ncnc2c1ncn2[C@@H]1C=C(CO)[C@@H](O)[C@H]1O` [NEOPLANOCIN A] gave an EC50 (Variola virus [2]) of 0.1 µM.
In the case of `CC(=O)Oc1ccccc1C(=O)Nc1ncc([N+](=O)[O-])s1` [NITAZOXANIDE], the EC50 (Vaccinia virus [3]) is reported as 1.95 µM.
`Nc1nc(=O)n([C@@H]2C=C(CO)[C@@H](O)[C@H]2O)cc1F` gave an EC50 (Variola virus [2]) of 0.51 µM.
Work on `CC[C@H](CO)Nc1nc(NCc2ccccc2O)c2ncn(C(C)C)c2n1` [OLOMOUCINE II] yielded an EC50 (Vaccinia virus [4]) of 3.8 µM.
With `O=C1C(O)=C([C@H]2CC[C@H](c3ccc(Cl)cc3)CC2)C(=O)c2ccccc21` [ATOVAQUONE] the EC50 (Monkeypox virus [5]) was 0.52 µM.
With `COc1ccc(CCNC(=O)c2cc3ccccc3cc2O)cc1-c1ccc([N+](=O)[O-])cc1` the EC50 (Vaccinia virus [6]) was 12 µM.
For `Cc1cn([C@@]2(C)C[C@H](O)[C@@H](CO)S2)c(=O)[nH]c1=O`, the EC50 (Vaccinia virus [7]) was 0.48 µM, the EC50 (Vaccinia virus [8]) was 0.8 µM and the EC50 (Cowpox virus [9]) was 0.48 µM. It also gave an EC50 (Vaccinia virus [10]) of 0.41 µM and an EC50 (Camelpox virus) of 0.79 µM.
In the case of `CC1(C)[C@@H]2CC[C@@]1(C)C(NC(=O)c1ccc([N+](=O)[O-])cc1)C2` (stereo not given in full), the EC50 (Vaccinia virus [11]) is reported as 0.03 µM, the EC50 (Cowpox virus [12]) is reported as 1.4 µM and the EC50 (Ectromelia virus [13]) is reported as 0.41 µM.
Work on `C=C(CC)C(=O)c1ccc(OCC(=O)O)c(Cl)c1Cl` [ETHACRYNIC ACID] yielded an EC50 (Vaccinia virus [14]) of 20 µM and an EC50 (Vaccinia virus [15]) of 40 µM.
Molecule `NC(=S)N/N=C1\C(=O)Nc2ccccc21` has an EC50 (Vaccinia virus [16]) of 14 µM and an EC50 (Vaccinia virus [17]) of 60 µM.
With `O=C(NNC(=O)C1C2C=CC(C3CC23)C1C(=O)O)c1ccccc1O` (stereo not given) the EC50 (Ectromelia virus [18]) was 0.54 µg/mL (≈ 1.58 µM), the EC50 (Monkeypox virus [19]) was 0.153 µg/mL (≈ 0.447 µM) and the EC50 (Vaccinia virus [20]) was 0.032 µg/mL (≈ 0.0935 µM).
With `CC1(C)[C@@H]2CC[C@@]1(C)/C(=N/Nc1nc(-c3ccc(Br)cc3)cs1)C2` the CC50 at 24 h [21] was 77.1 µM.
For `NC(=O)c1cn([C@@H]2O[C@H](CO)[C@@H](O)[C@H]2O)c2ncnc(N)c12` [SANGIVAMYCIN], the EC50 (Vaccinia virus [22]) was 0.065 µM.
`CO[C@H]1/C=C/O[C@@]2(C)Oc3c(C)c(O)c4c(O)c(c(/C=N/N5CCN(C)CC5)c(O)c4c3C2=O)NC(=O)/C(C)=C\C=C\[C@H](C)[C@H](O)[C@@H](C)[C@@H](O)[C@@H](C)[C@H](OC(C)=O)[C@@H]1C` [RIFAMPIN] gave an IC50 (Vaccinia virus [23]) of ~100 µg/mL (≈ 122 µM).
With `O=[N+]([O-])c1cc(/C=N/c2ccccc2/N=C/c2ccc(O)c(O)c2)ccc1O` the EC50 (Vaccinia virus [24]) was 13.2 µM and the EC50 (Vaccinia virus [25]) was 10.9 µM.
Molecule `CCNC(=O)OCC12CC3CC(CC(C3)C1)C2` has an EC50 (Vaccinia virus [26]) of 14.8 µM.
Molecule `O=c1[nH]c(=O)n([C@H]2C[C@H](O)[C@@H](CO)S2)cc1I` has an EC50 (Vaccinia virus [7]) of 0.5 µM and an EC50 (Vaccinia virus [8]) of 0.05 µM.

From ChEMBL document CHEMBL5346934 (J Med Chem, 2023)
